Assay results as given in PMC8860572 (Nucleic Acids Research, 2022).
“Also recorded” adds a separate entry of the source. Like-named read-outs stand apart in the source and are kept apart here.

Experiments:
[1] = target: SARS-CoV-2 nsp14–nsp10 complex (nuclease activity) (Severe acute respiratory syndrome coronavirus 2, UniProt P0DTD1); assay: biochemical; details: for IC50 value / IC50: 100 nM nsp14–nsp10, 10 nM 20-mer ssRNA, 37°C 45 min, approximate/preliminary; for inhibition of substrate digestion in gel-based assay: 100 nM nsp14–nsp10, compound up to 100 μM
nsp14–nsp10 = nsp14–nsp10 (Severe acute respiratory syndrome coronavirus 2, UniProt P0DTD1); format: binding, SARS-CoV-2; details: for ΔTm: 1 µM nsp14-10; for effect on thermal stability / aggregation of nsp14–nsp10 (words): 3.1-100 µM compound
[2] = target: SARS-CoV-2 nsp14–nsp10 RNase activity (Severe acute respiratory syndrome coronavirus 2, UniProt P0DTD1); format: biochemical
[3] = target: nsp14–nsp10 co-incubated with nsp8 (Severe acute respiratory syndrome coronavirus 2, UniProt P0DTD1); assay: gel-based nuclease inhibition assay with nsp8 stimulation; format: biochemical, SARS-CoV-2; details: 100 nM nsp14-nsp10 and 300 nM nsp8, compound 3-100 μM
[4] = target: guanine N7 methyl transferase (MTase) activity of nsp14–nsp10 (Severe acute respiratory syndrome coronavirus 2, UniProt P0DTD1); assay: HTRF methyltransferase assay; format: biochemical, SARS-CoV-2; details: 2.5, 5 and 10 μM compound; 10 nM nsp14-nsp10, 5 μM SAM, 0.14 mM GP3G
SARS-CoV-2 = details: cited from earlier work
[5] = Supplementary Table 2, in vitro inhibition of nsp14-nsp10 nuclease activity, result in words
[6] = 125 nM (ions) or 250 nM (chelators) nsp14-nsp10, ions 0.05-10 mM, chelators 0.03-1 mM

SMILES | ΔTm (nsp14–nsp10; 3.1 µM compound) [°C] | ΔTm (nsp14–nsp10; 6.3 µM compound) [°C] | ΔTm (nsp14–nsp10; 12.5 µM compound) [°C] | ΔTm (nsp14–nsp10; 25 µM compound) [°C] | ΔTm (nsp14–nsp10; 50 µM compound) [°C] | ΔTm (nsp14–nsp10; 100 µM compound) [°C] | other results
Cc1ccc(-n2sc3ccccc3c2=O)cc1 [PBIT, reference compound] | – | – | – | – | – | – | IC50 value [1]: IC50 not reached under assay conditions
O=c1c2ccccc2n(Cc2ccccc2)c(=O)n1O [A-4] | -0.06 | 0.11 | 0.27 | -1.33 | 0.35 | 0.62 | IC50 [1]: 94.1 ± 27 µM; Level of inhibition [1, 5]: Yes
O=c1[nH]c2ccccc2c(=O)n1O [A-3] | -0.10 | 0.13 | 0.31 | 1.33 | 0.36 | – | –
O=C(O)CN(CCOCCOCCN(CC(=O)O)CC(=O)O)CC(=O)O [EGTA, ethylene glycol-bis (b-aminoethyl ether)-N,N,N’,N’-tetraacetic acid, reference compound] | – | – | – | – | – | – | effect on RNase activity of nsp14–nsp10 [2, 6]: inhibitory
O=C(O)c1nc(-c2ccccc2)nc(O)c1O [B-1, 5,6-Dihydroxyl-2-phenylpyrimidine-4-carboxylic acid] | -0.15 | 0.02 | 0.08 | -0.57 | 0.23 | 0.46 | inhibition of nuclease activity in presence of nsp8 [3]: inhibition was still observed, albeit at higher inhibitor concentrations; IC50 [1]: 32.2 ± 4.5 µM; Level of inhibition [1, 5]: Yes; MTase inhibition [4]: demonstrated MTase inhibition activity; also recorded: most potent compound
[Mn+2] [manganese] | – | – | – | – | – | – | effect on RNase activity of nsp14–nsp10 [2]: promoted the RNase activity
O=c1c2ccccc2[se]n1-c1ccccc1 [ebselen, reference compound] | – | – | – | – | – | – | antiviral activity in cell-based assays (SARS-CoV-2): exhibited antiviral activity in cell-based assays; inhibition of nuclease activity in presence of nsp8 [3]: inhibition was still observed, albeit at higher inhibitor concentrations; Level of inhibition [1]: Yes; MTase inhibition [4]: demonstrated MTase inhibition activity
COc1cc2c3c(cccc3c1)C(=O)N(O)C2=O [A-2] | 0.01 | 0.26 | 0.22 | 0.21 | 0.36 | – | inhibition of nuclease activity in presence of nsp8 [3]: inhibition was still observed, albeit at higher inhibitor concentrations; IC50 [1]: 20.7 ± 0.5 µM; inhibition of substrate digestion in gel-based assay [1]: qualitatively complete inhibition of substrate digestion; Level of inhibition [1, 5]: Yes; MTase inhibition [4]: demonstrated MTase inhibition activity
COc1ccc2c3c(cccc13)C(=O)N(O)C2=O [A-1] | 0.02 | 0.31 | 0.25 | 0.17 | 0.29 | 0.60 | inhibition of substrate digestion in gel-based assay [1]: qualitatively complete inhibition of substrate digestion
O=c1c2ccccc2[nH]c(=S)n1O [A-5, 3-Hydroxy-2-thioxo-2,3-dihydroquinazolin-4-one] | 0.00 | 0.24 | 0.19 | 0.00 | 0.38 | 0.61 | IC50 value [1]: incomplete inhibition
c1cnc2c(c1)ccc1cccnc12 [o-phenanthroline, reference compound] | – | – | – | – | – | – | effect on RNase activity of nsp14–nsp10 [2, 6]: inhibitory
CN(C)C(=S)SSC(=S)N(C)C [thiram, reference compound] | -0.53 | -0.46 | -0.22 | -0.42 | -0.43 | -0.21 | IC50 [1]: 48.2 ± 1.8 µM; Level of inhibition [1, 5]: Yes
Cc1nnc(C(=O)NC(C)(C)c2nc(C(=O)NCc3ccc(F)cc3)c(O)c(=O)n2C)o1 [raltegravir, reference compound] | – | – | – | – | – | – | antiviral activity in cell-based assays (SARS-CoV-2): did not; IC50 [1]: 24.4 ± 2.7 µM
CCN(CC)C(=S)SSC(=S)N(CC)CC [disulfiram, reference compound] | -0.53 | -0.58 | -0.13 | -0.42 | -0.40 | 0.33 | –
O=C(O)C1=CC(=C(c2ccc(O)c(C(=O)O)c2)c2ccc(O)c(C(=O)O)c2)C=CC1=O [ATA, Aurintricarboxylic acid, reference compound] | 0.33 | 0.27 | 0.85 | 3.08 | – | – | effect on thermal stability / aggregation of nsp14–nsp10 (words) (nsp14–nsp10): destabilizing effect on thermal stability of nsp14–nsp10; effect on thermal stability / aggregation of nsp14–nsp10 (words) (nsp14–nsp10; listed as aurintricarboxylic acid): appears to aggregate the protein at high concentration; Level of inhibition [1, 5]: Yes
[Mg] [magnesium] | – | – | – | – | – | – | effect on RNase activity of nsp14–nsp10 [2, 6]: promoted the RNase activity
[Cl-].[Cl-].[Zn+2] [zinc] | – | – | – | – | – | – | effect on RNase activity of nsp14–nsp10 [2]: inhibitory
